According to ChEMBL document CHEMBL1938278, “Protective effect of ginseng sapogenins against 2,2'-azobis (1-aminopropane) dihydrochloride (AAPH)-induced LLC-PK₁ cell damage” (2012):

Legend:
Format in all cases: functional
Conditions in all cases: Sus scrofa, LLC-PK1, 24 h; read-out: Activity
[1] = test system: LLC-PK1; assay: Renoprotective activity against AAPH-induced oxidative damage in pig LLC-PK1 cells assessed as cell viability at 1 ug/ml after 24 hrs by MTT assay relative to control
[2] = test system: LLC-PK1; assay: Renoprotective activity against AAPH-induced oxidative damage in pig LLC-PK1 cells assessed as cell viability at 5 ug/ml after 24 hrs by MTT assay relative to control
[3] = test system: LLC-PK1; assay: Renoprotective activity against AAPH-induced oxidative damage in pig LLC-PK1 cells assessed as cell viability at 10 ug/ml after 24 hrs by MTT assay relative to control

Compound | viability at 1 µg/mL [1] [%] | viability at 5 µg/mL [2] [%] | viability at 10 µg/mL [3] [%]
C=C(CCC=C(C)C)[C@H]1CC[C@]2(C)[C@@H]1[C@H](O)C[C@@H]1[C@@]3(C)CC[C@H](O)C(C)(C)[C@@H]3CC[C@]12C | 61.8 | 69.9 | 85.5
C=C(CCC=C(C)C)[C@H]1CC[C@]2(C)[C@@H]1[C@H](O)C[C@@H]1[C@@]3(C)CC[C@H](O)C(C)(C)[C@@H]3[C@@H](O)C[C@]12C | 76.9 | 94.4 | 101
CC(C)=CC/C=C(\C)[C@H]1CC[C@]2(C)[C@@H]1[C@H](O)C[C@@H]1[C@@]3(C)CC[C@H](O)C(C)(C)[C@@H]3CC[C@]12C | 60.7 | 63.7 | 64.6
CC(C)=CC/C=C(\C)[C@H]1CC[C@]2(C)[C@@H]1[C@H](O)C[C@@H]1[C@@]3(C)CC[C@H](O)C(C)(C)[C@@H]3[C@@H](O)C[C@]12C | 61.5 | 63.3 | 63.3
CC(C)=CCC[C@](C)(O)[C@H]1CC[C@]2(C)[C@@H]1[C@H](O)C[C@@H]1[C@@]3(C)CC[C@H](O)C(C)(C)[C@@H]3[C@@H](O)C[C@]12C | 61.1 | 73.3 | 85.7
CC(C)=CCC[C@](C)(O)[C@H]1CC[C@]2(C)[C@@H]1[C@H](O)C[C@@H]1[C@@]3(C)CC[C@H](O)C(C)(C)[C@@H]3CC[C@]12C | 62.2 | 72.6 | 62.6
